In patent US10350199B2, “3-(1h-pyrrolo[2,3-b]pyridin-2-yl)-1h-indazoles and therapeutic uses thereof” (Samumed, LLC, priority 2015, dated 2019) one finds EC50, inhibition and Emax data, which are given here for six compounds.

What all share (assay type): cell-based
The test system of assay [1] is IL-6 (THP-1 human monocyte cell line). Put plainly: IL-6 inhibition in LPS-stimulated THP-1 cells (HTRF). As to conditions: for EC50: IL-6 inhibition, LPS-stimulated THP-1 cells, HTRF; for inhibition at 10 µM: THP-1, read-out: percentage in parentheses beside EC50 >10 (IL-6 inhibition). The procedure, abridged:
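After 24 h in 1% FBS medium, cells had compound 2 h before 500 ng/mL LPS, then 22 h more at 37 °C. DMSO-normalized HTRF signal (665/620 nm ratio, anti-IL-6 antibody pair) was fitted with a variable-slope four-parameter model to give EC50.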
On the technique in general: In TR-FRET formats the signal depends on donor and acceptor labels being close together.

A further assay relates to SW480 colon cancer cells. Put plainly: Cell viability assay (CellTiter-Blue), SW480 cells, four days. As to conditions: Homo sapiens; for EC50: 96 h, SW480 cell viability, four days, CellTiter-Blue; for inhibition at 10 µM: SW480, read-out: percent inhibition at 10 μM. Summed up: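 Fluorescence from resazurin reduced to resorufin by metabolically active cells was the read-out, taken after ~3 h with CellTiter-Blue.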

The test system of assay [2] is primary human mesenchymal stem cells (hMSCs). The assay can be described thus: Induction of chondrogenesis in human mesenchymal stem cells (nodule area, Rhodamine B/Nile Red). As to conditions: hMSC chondrogenesis, relative to TGF-β3 (10 ng/mL) positive control, read-out: Max. Activity as % TGF-β3 activity. Summed up: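 Primary hMSCs at passage 3-6 were treated with compound; nodule area per well was normalized to the mean of 3 DMSO wells, averaged over 2-3 replicates, and the concentration giving 50% chondrogenesis relative to TGF-β3 control, plus maximum activity and its dose, was derived.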

The subject of assay [3] is primary human fibroblasts derived from IPF patients (LL29 cells) treated with TGF-β1. Put plainly: Inhibition of the fibrotic process: αSMA staining in TGF-β1 treated LL29 fibroblasts. As to conditions: Fibroblast; for EC50: 96 h, LL29 cells, TGF-β1 20 ng/mL, 4 days, % αSMA positive cells; for inhibition at 10 µM: read-out: percent inhibition at 10 μM. The procedure, abridged: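 Read-out after 4-day incubation: αSMA staining with 1 μM SYTOX green nuclear counterstain (30 min, room temperature). Cells were LL29 primary fibroblasts from IPF patients, in 1% FBS F12, exposed to TGF-β1 with test compound, referenced to TGF-β1/DMSO control wells.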

The subject of assay [4] is Wnt activity (Sp5-Luc reporter, SW480 colon carcinoma cells). The assay can be described thus: Wnt activity screening assay, Sp5-Luc reporter gene in SW480 cells. As to conditions: Homo sapiens; for inhibition at 10 µM: SW480, read-out: percent inhibition at 10 μM; for EC50: Sp5-Luc reporter, SW480 cells, overnight incubation. Summed up: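 Read-out is BrightGlo luminescence, normalized to DMSO-treated cells and fitted by four-parameter variable-slope regression for EC50. Reporter cells: SW480 colon carcinoma carrying a stable lentiviral Sp5-Luc construct with eight TCF/LEF sites, seeded 4,000/well in 1% FBS, incubated overnight at 37° C.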

Usually EC50 stands for the concentration that produces a half-maximal response. A higher EC50 goes with a need for much substance. Usually inhibition stands for the share of the control response that was lost under treatment. Consider `CN1CCN(c2ccnc3[nH]c(-c4n[nH]c5ccc(-c6cncc(NC(=O)CC7CCNCC7)c6)cc45)cc23)CC1` [Compound 641, N-(5-(3-(4-(4-Methylpiperazin-1-yl)-1H-pyrrolo[2,3-b]pyridin-2-yl)-1H-indazol-5-yl)pyridin-3-yl)-2-(piperidin-4-yl)acetamide], for which the EC50 (in assay [1]; in the assay with SW480 colon cancer cells; in assay [3]; in assay [4]) was > 10 µM each time. Besides, the inhibition at 10 µM in assay [1] worked out at 26%; with SW480 colon cancer cells, 16.2%; in assay [3] it was 23.5%; in assay [4], 10.8%. The Emax in assay [2] is 17%.

Regarding `c1cnc2[nH]c(-c3n[nH]c4ccc(-c5cncc(OCCN6CCCC6)c5)cc34)cc2c1` [Compound 658, 5-(5-(2-(Pyrrolidin-1-yl)ethoxy)pyridin-3-yl)-3-(1H-pyrrolo[2,3-b]pyridin-2-yl)-1H-indazole], the 50% effective concentration (EC50) was determined as 0.205 µM in assay [1], 3.94 µM with SW480 colon cancer cells, 1.2 µM in assay [3] and 3.29 µM in assay [4]. The Emax in assay [2] was 43%.

With `COc1cncc(-c2ccc3[nH]nc(-c4cc5c(-c6ccoc6)ccnc5[nH]4)c3c2)c1` [Compound 692, 3-(4-(Furan-3-yl)-1H-pyrrolo[2,3-b]pyridin-2-yl)-5-(5-methoxypyridin-3-yl)-1H-indazole], the EC50 (in assay [1]; in the assay on SW480 colon cancer cells; in assay [3]; in assay [4]) was > 10 µM in each case. The inhibition at 10 µM is 43.9% in assay [1], 0% with SW480 colon cancer cells, 0% in assay [3] and 20% in assay [4]. In addition, the Emax in assay [2] turned out to be 26%.

Consider `CN(C)Cc1cncc(-c2cc(F)c3[nH]nc(-c4cc5c(-c6cccc(F)c6)ccnc5[nH]4)c3c2)c1` [Compound 992, 1-(5-(7-Fluoro-3-(4-(3-fluorophenyl)-1H-pyrrolo[2,3-b]pyridin-2-yl)-1H-indazol-5-yl)pyridin-3-yl)-N,N-dimethylmethanamine], for which the EC50 (in assay [1]; in the assay on SW480 colon cancer cells; in assay [3]; in assay [4]) was > 10 µM throughout. Besides, the inhibition at 10 µM in assay [1] was 34.2%; in the assay on SW480 colon cancer cells, 3.6%; in assay [3], 5.2%; in assay [4] it was 17%. Also, the Emax in assay [2] worked out at 35%.

On to `CN(C)Cc1cncc(-c2cc3c(-c4cc5c(-c6cccc(F)c6)ccnc5[nH]4)n[nH]c3cc2F)c1` [Compound 993, 1-(5-(6-Fluoro-3-(4-(3-fluorophenyl)-1H-pyrrolo[2,3-b]pyridin-2-yl)-1H-indazol-5-yl)pyridin-3-yl)-N,N-dimethylmethanamine], for which the EC50 in assay [1] is 0.852 µM; in the assay on SW480 colon cancer cells it was 2.4 µM; in assay [3], 1.63 µM; in assay [4] it was > 10 µM. Also, in assay [2], the Emax came to 28%.

Take `CN(C)Cc1cncc(-c2ccc3[nH]nc(-c4cc5c(-c6cccc(F)c6)ccnc5[nH]4)c3c2F)c1` [Compound 994, 1-(5-(4-Fluoro-3-(4-(3-fluorophenyl)-1H-pyrrolo[2,3-b]pyridin-2-yl)-1H-indazol-5-yl)pyridin-3-yl)-N,N-dimethylmethanamine]: the EC50 in assay [1] was > 10 µM; in the assay with SW480 colon cancer cells, > 10 µM; in assay [3], 4.9 µM; in assay [4], > 10 µM. In addition, the inhibition at 10 µM in assay [1] was found to be 36.6%; in the assay with SW480 colon cancer cells, 34.7%; in assay [4] it was 20.8%. Besides, the Emax in assay [2] was 21%.
